Measurements: patent US5135746A, “Control of protozoal disease” (Takeda Chemical Industries, Ltd., priority 1989, dated 1992)
Values joined by “and” are separate entries in the source; they are usually repeats but may differ in a detail not shown here. Equal values may be shown once.

Key:
[1] = tested on: Laboratory Standard Strain Eimeria tenella; test: Anticoccidial effect in White Leghorn chicks infected with laboratory standard strain Eimeria tenella, drugs in feed for 9 days (Table 1); format: in vivo; set-up: Caecal Lesion: scale not given here; details: for OPG: day7; for Caecal Lesion: day-8
Protocol: (§1) The effect of the drugs to coccidiosis was examined using chicks. Namely, nine-day-old White Leghorn male chicks were divided into groups each of which consists of 3 chicks, and 5×10^4 sporulated oocysts per chick of laboratory standard strain Eimeria tenella were orally inoculated into the chicks in all groups except for the control group in which the chicks were not infected and not dosed with the drugs, at 24 hours after the start of dosing. Prescribed amounts of respective plant components dried and crushed and monensin sodium or salinomycin sodium were added to the basal feed (SDL No. 1: Nippon Haigo Shiryo), and continuously administered by the free ingesting method for 9 days from 24 hours before infection to 8 days after infection. The weight of each chick was measured, and the bloody dropping were observed. Further, the chicks were autopsied at day-8 after infection to examine the caecel lesion. Thus, the anticoccidial effect of the administered test drugs was determined.
Note ^1) Weight gain ratio = (Average weight gain for each test
Note ^2) The bloody feces index is indicated by the number of bloody
Note ^3) The caecal lesion is indicated by an average score when
Note ^5) The ND means "not detected".

[2] = Acute toxicity by oral administration to mice; details: mouse, in vivo
[3] = tested on: Field Chicken Coocidia of Mixed Species; test: Combined effect of monensin and Rhizophoraceae bark in chicks infected with field coccidia of mixed species, 10,000 oocysts per chick (Table 6); format: in vivo, mixed strain containing five or more kinds of coccidia; details: 80 ppm in feed
Protocol: as §1
Using the mixed strain (large size oocysts: 5%, middle size oocysts: 72%, small size oocysts: 23%) collected in the field and containing five or more kinds of coccidia, the combined administration effect of monensin and Rhizophoraceae bark against chicks infected with 10,000 oocysts per chick was examined, by an infection experiment method in accordance with the method in Example 1. In Table 6, the general intestine lesion value was obtained by converting the sum of values judged by the five steps from 0 to +4 to a value per chick, for the lesion of upper, middle and lower parts of small intestine and caecum, according to the method described in Johnson and Reid, Exp. Parasitol. 28, 30-36 (1970). Other determinations were carried out in the same manner as with Example 1.

[4] = tested on: Laboratory Standard Strain Eimeria tenella (AMD); test: Combined effect of ionophore antibiotics and Rhizophoraceae bark in infected chicks (Table 5); format: in vivo
Protocol: as §1
The combined administration effect of the ionophore antibiotics and Rhizophoraceae bark was examined, by an infection experiment method in accordance with the method in Example 1.

[5] = tested on: Field Isolate Eimeria tenella (AMD); test: Anticoccidial effect in chicks infected with field isolate Eimeria tenella (AMD) resistant against ionophore antibiotics, 30,000 oocysts per chick (Tables 2-4); format: in vivo

C=CCc1ccc(O)c(-c2ccc(O)c(CC=C)c2)c1 [Honokiol, honokiol]
Mortality ([1]; 125 ppm in feed): 1/3
No. of Bloody Droppings ([1]; 125 ppm in feed): 13.3
Weight Gain Ratio ([1]; 125 ppm in feed): 41.6%
OPG ([1]; 125 ppm in feed): 5.1 log
Caecal Lesion ([1]; 125 ppm in feed): 4.0
Mortality ([1]; 500 ppm in feed): 0/3
No. of Bloody Droppings ([1]; 500 ppm in feed): 1.0
Weight Gain Ratio ([1]; 500 ppm in feed): 99.4%
OPG ([1]; 500 ppm in feed): 4.9 log
Caecal Lesion ([1]; 500 ppm in feed): 3.3

C=CCc1ccc(O)c(-c2cc(CC=C)ccc2O)c1 [Magnolol]
LD50 [2]: 2200 mg/kg
Mortality ([1]; 125 ppm in feed): 0/3
No. of Bloody Droppings ([1]; 125 ppm in feed): 13.3
Weight Gain Ratio ([1]; 125 ppm in feed): 62.5%
OPG ([1]; 125 ppm in feed): 5.3 log
Caecal Lesion ([1]; 125 ppm in feed): 4.0
Mortality ([1]; 250 ppm in feed): 0/3
No. of Bloody Droppings ([1]; 250 ppm in feed): 3.7
Weight Gain Ratio ([1]; 250 ppm in feed): 89.3%
OPG ([1]; 250 ppm in feed): 5.8 log
Caecal Lesion ([1]; 250 ppm in feed): 4.0
Mortality ([1]; 500 ppm in feed): 0/3
No. of Bloody Droppings ([1]; 500 ppm in feed): 1.3
Weight Gain Ratio ([1]; 500 ppm in feed): 94.5%
OPG ([1]; 500 ppm in feed): 3.2 log
Caecal Lesion ([1]; 500 ppm in feed): 3.3

CCC1(C2OC(C3OC(O)(CO)C(C)CC3C)CC2C)CCC(C2(C)CCC3(CC(O)C(C)C(C(C)C(OC)C(C)C(=O)O)O3)O2)O1 (stereo not shown) [Monensin, monensin sodium]
Mortality ([1]; 40 ppm in feed): 1/3
No. of Bloody Droppings ([1]; 40 ppm in feed): 13.3
Weight Gain Ratio ([1]; 40 ppm in feed): 36.7%
OPG ([1]; 40 ppm in feed): 4.5 log
Caecal Lesion ([1]; 40 ppm in feed): 4.0
Mortality ([1]; 60 ppm in feed): 0/3
No. of Bloody Droppings ([1]; 60 ppm in feed): 7.3
Weight Gain Ratio ([1]; 60 ppm in feed): 92.9%
OPG ([1]; 60 ppm in feed): 4.6 log
Caecal Lesion ([1]; 60 ppm in feed): 4.0
Mortality ([1]; 80 ppm in feed): 0/6
No. of Bloody Droppings ([1]; 80 ppm in feed): 1.0
Weight Gain Ratio ([1]; 80 ppm in feed): 103.2%
OPG ([1]; 80 ppm in feed): 4.3 log
Caecal Lesion ([1]; 80 ppm in feed): 2.2
Mortality ([1]; 120 ppm in feed): 0/6
No. of Bloody Droppings ([1]; 120 ppm in feed): 0
Weight Gain Ratio ([1]; 120 ppm in feed): 103.2%
OPG ([1]; 120 ppm in feed): 3.4 log
Caecal Lesion ([1]; 120 ppm in feed): 0
Mortality [3]: 1/6
No. of Bloody Droppings [3]: 6.0
Weight Gain Ratio [3]: 89%
Caecal Lesion ([3]; general intestine lesion value): 5.5
Caecal Lesion ([4]; 80 ppm in feed): 3.2
Mortality ([4]; 80 ppm in feed): 0/9
No. of Bloody Droppings ([4]; 80 ppm in feed): 5.0
Weight Gain Ratio ([4]; 80 ppm in feed): 88%
Caecal Lesion ([5]; 80 ppm in feed): 4.0 and 3.8
Mortality ([5]; 80 ppm in feed): 0/5
No. of Bloody Droppings ([5]; 80 ppm in feed): 10.0 and 9.0
OPG ([5]; 80 ppm in feed): 6.2 log and 6.1 log
Weight Gain Ratio ([5]; 80 ppm in feed): 54.8% and 72.3%
Caecal Lesion ([5]; 100 ppm in feed): 4.0
Mortality ([5]; 100 ppm in feed): 0/5
No. of Bloody Droppings ([5]; 100 ppm in feed): 8.0
OPG ([5]; 100 ppm in feed): 6.1 log
Weight Gain Ratio ([5]; 100 ppm in feed): 72.6%
Mortality ([5]; 160 ppm in feed): 0/5
No. of Bloody Droppings ([5]; 160 ppm in feed): 0
OPG ([5]; 160 ppm in feed): 4.7 log
Weight Gain Ratio ([5]; 160 ppm in feed): 81.5% and 86.5%
Caecal Lesion ([5]; 240 ppm in feed): 0
Mortality ([5]; 240 ppm in feed): 0/5
No. of Bloody Droppings ([5]; 240 ppm in feed): 0
Weight Gain Ratio ([5]; 240 ppm in feed): 46.5%
concentration at which sufficient antiprotozoal activity is shown ([5]; in feed): ≥ 160 ppm

CC[C@@H](C(=O)[C@@H](C)[C@@H](O)[C@H](C)[C@@H]1O[C@@H]([C@@H](CC)C(=O)O)CC[C@@H]1C)[C@H]1O[C@]2(C=C[C@@H](O)[C@]3(CC[C@@](C)([C@H]4CC[C@](O)(CC)[C@H](C)O4)O3)O2)[C@H](C)C[C@@H]1C [Salinomycin, salinomycin sodium]
Caecal Lesion ([4]; 50 ppm in feed): 3.6
Mortality ([4]; 50 ppm in feed): 1/9
No. of Bloody Droppings ([4]; 50 ppm in feed): 7.0
Weight Gain Ratio ([4]; 50 ppm in feed): 62%
Caecal Lesion ([5]; 50 ppm in feed): 3.2
Mortality ([5]; 50 ppm in feed): 0/5
No. of Bloody Droppings ([5]; 50 ppm in feed): 9.0
OPG ([5]; 50 ppm in feed): 5.8 log
Weight Gain Ratio ([5]; 50 ppm in feed): 80.3%
